Patent US20190125790A1, “USE OF HYPOCHLOROUS ACID AS A TOPICAL ANTIMICROBIAL” (BIIOSMART TECHNOLOGIES LLC, priority 2016, published 2019)

Key:
[1] = Randomized double blind placebo controlled trial as sexual cleanser; format: in vivo, human; settings: six months
Description: The purpose of this study was to evaluate the real world use and effect of the solution in a group of 47 willing participants located in Cartagena, Colombia. These willing participants were all active sex workers, whom on a weekly basis, were actively engaged in sexual intercourse with the general public. This demographic was selected as a “high risk” group of individuals that frequently encounter many forms of sexually transmitted infections. Throughout the study, the “HOCl test” group was compared with the “placebo” group in an effort to gauge the efficacy of prevention and treatment for contact-to-contact sexually transmitted infections as well as common infections related to sex. […] The patients were required to complete extensive evaluations regarding their sexual health and lifestyles. The duration of the study was six months.

[2] = tested on: S. aureus Linezolid Resistant; assay: Efficacy at 30 seconds (Table 2); format: cell-based; settings: 0.01 to 0.05% aqueous solution
HIV (non-glp) = assay: Antimicrobial efficacy of HOCl skin cleanser (Table 1); format: cell-based; settings: 0.01% HOCl; 30 seconds
Campylobacter rectus = assay: as above; format: cell-based; settings: 0.01% HOCl; 30 seconds
VRE = assay: Efficacy at 30 seconds (Table 2); format: cell-based, vancomycin-resistant enterococci; settings: 0.01 to 0.05% aqueous solution
E. coli NDM-1 = assay: Efficacy at 30 seconds (Table 2); format: cell-based; settings: 0.01 to 0.05% aqueous solution
[3] = tested on: Staphylococcus epidermidis; assay: Antimicrobial efficacy of HOCl skin cleanser (Table 1); format: cell-based; settings: 0.01% HOCl; 30 seconds
Escherichia coli = assay: as above; format: cell-based; settings: 0.01% HOCl; 30 seconds
[4] = Biocompatibility and animal testing, overall; format: in vivo; settings: 0.05% hypochlorous acid solution
Description: The extensive biocompatibility and animal testing that have been performed supports the safety and efficacy of the 0.05% hypochlorous acid solution. […] Due to the safety of the solution, the hypochlorous acid solution can be used repeatedly without altering or changing the properties of the skin and mucous membranes.

S. pyogenes [5] = assay: Efficacy at 30 seconds (Table 2); format: cell-based; settings: 0.01 to 0.05% aqueous solution
[6] = tested on: all microorganisms tested; assay: ASTM E2315 Time Kill Assay, summary of Table 3; format: cell-based; settings: concentration of 0.046%, 30 seconds
Experimental: Table 3. below represents the efficacy of 0.046% aqueous hypochlorous acid solution in the presence of high organic load. ASTM E2315 Time Kill Assay for Antimicrobial Agents. The study was performed in ATS labs in Minnesota recommended by the U.S. FDA's Tentative Final Monograph for OTC Healthcare Antiseptic Drug. […] Additional times were evaluated: 1 minute, 5 minutes, and 10 minutes, all with and without organic soil (Using 10% whole milk and 5% Fetal Bovine Serum). The trend in the efficiency is maintained under the same proportions.

Herpes Simplex = assay: Efficacy at 30 seconds (Table 2); format: cell-based; settings: 0.01 to 0.05% aqueous solution
[7] = Absorption through intact skin; format: in vitro ADME; settings: low concentrations of hypochlorous acid
Description: Thus, the potential for producing skin reactions is extremely low.

[8] = Controlled randomized single blind clinical trial in surgical open wounds; format: in vivo, human
Experimental: The biocompatibility of the 0.046% HOCl concentration aqueous solution was tested in a three way controlled and randomized single blind clinical trial. Patients were randomized into three groups (60 patients per group). The antiseptic efficacy and biocompatibility of the test solution vs. povidone-iodine vs. chlorhexidine (Chlorhexidine Gluconate—CHG) in surgical—clean and clean contaminated—open wounds was evaluated in 180 patients admitted to the surgical facilities of Erasmo Meoz Hospital in Cucuta, Colombia.

Herpes simplex virus = assay: Antimicrobial efficacy of HOCl skin cleanser (Table 1); format: cell-based; settings: 0.01% HOCl; 30 seconds
Enterococcus. faecium = assay: as above; format: cell-based; settings: 0.01% HOCl; 30 seconds
[9] = Fournier's gangrene patient case; format: in vivo, human; settings: HOCl (0.046%) aqueous solution; one patient; four step surgical process; 24 hours period
Experimental: A HOCl (0.046%) aqueous solution was preformed in a four step surgical process to a patient that was infected with Fournier's gangrene. Skin was removed from the infected area before administering the HOCl solution on the infected areas in a 24 hours period. Following application, skin graphs were placed over the surgical wound for rehabilitation process.

Staphylococcus aureus = assay: Antimicrobial efficacy of HOCl skin cleanser (Table 1); format: cell-based; settings: 0.01% HOCl; 30 seconds
Enterobacter cloacae = assay: as above; format: cell-based; settings: 0.01% HOCl; 30 seconds
[10] = tested on: E. coli Carbapenem Resistant; assay: Efficacy at 30 seconds (Table 2); format: cell-based; settings: 0.01 to 0.05% aqueous solution
[11] = Biocompatibility in treated patients; format: in vivo, human; settings: 0.05% HOCl aqueous solution; over 20,000 patients treated
Description: The 0.05% HOCl concentration aqueous solution is biocompatible and found to have a high safety profile. Over 20,000 patients have been treated with the solution with zero reported cases of hypersensitivity. The solution is pH controlled for biocompatibility, formulated for use on sensitive mucous membrane areas of the body, is non-antibiotic, non-irritating, non-allergenic, non-invasive, and non-toxic. No adverse effects against cellular growth in the patient.

host cells = settings: 0.04% HOCl aqueous solution
S. pyogenes [12] = assay: Antimicrobial efficacy of HOCl skin cleanser (Table 1); format: cell-based; settings: 0.01% HOCl; 30 seconds
MRSA = assay: Efficacy at 30 seconds (Table 2); format: cell-based, methicillin-resistant staphylococcus aureus; settings: 0.01 to 0.05% aqueous solution
[13] = HOCl (0.046%) test group, 24 patients

SMILES: OCl [HOCl, hypochlorous acid]
- rashes from irritation [1, 13]: two
- rashes from irritation, increase [1, 13]: 8.3%
- total infections [1, 13]: three
- total infections, increase [1, 13]: 13.5%
- urinary tract infection [1, 13]: one
- urinary tract infection, increase [1, 13]: 4.2%
- yeast infections [1, 13]: zero
- reported contact-to-contact STIs ([1]; HOCl (0.046%) test group, 24 patients, 85% confidence level): zero
- change of the pH of the vagina ([1]; all 47 patients): No significant change
- % Reduction [2]: 99.999%
- Log Reduction [2]: >5.84 Log10
- % Reduction (HIV (non-glp)): 99.999%
- Log Reduction (HIV (non-glp)): >6.1 Log10
- % Reduction (Campylobacter rectus): 99.99%
- Log Reduction (Campylobacter rectus): >5.96 Log10
- % Reduction (VRE): 99.999%
- Log Reduction (VRE): >5.51 Log10
- % Reduction (E. coli NDM-1): 99.999%
- Log Reduction (E. coli NDM-1): >5.47 Log10
- % Reduction [3]: 99.999%
- Log Reduction [3]: >5.8 Log10
- % Reduction (Escherichia coli): 99.99%
- Log Reduction (Escherichia coli): >6.59 Log10
- adverse effects to the skin or mucous membranes [4]: without adverse effects to the skin or mucous membranes
- % Reduction (S. pyogenes [5]): >99.99%
- Log Reduction (S. pyogenes [5]): >4.97Log10
- efficacy [6]: 99.999%
- % Reduction (Herpes Simplex): 99.999%
- Log Reduction (Herpes Simplex): >5.35 Log10
- absorption of the compound through intact skin [7]: no evidence of absorption of the compound through intact skin
- infected patients ([8]; 0.046% HOCl aqueous solution, 60 patients per group, surgical open wounds): no infected patients
- wound appearance (biocompatibility) ([8]; human, in vivo): define edges, good color and hydrated wound beds
- % Reduction (Herpes simplex virus): 99.99%
- Log Reduction (Herpes simplex virus): >5.8 Log10
- % Reduction (Enterococcus. faecium): 99.99%
- Log Reduction (Enterococcus. faecium): >6.21 Log10
- outcome in Fournier's gangrene [9]: prevention of further spread of the disease as well as prevention of amputation and additional complications
- % Reduction (Staphylococcus aureus): 99.999%
- Log Reduction (Staphylococcus aureus): >6.1 Log10
- % Reduction (Enterobacter cloacae): 99.99%
- Log Reduction (Enterobacter cloacae): >5.76 Log10
- % Reduction [10]: 99.999%
- Log Reduction [10]: >5.57 Log10
- reported cases of hypersensitivity [11]: zero
- adverse effects to the host cells (host cells): no adverse effects to the host cells
- % Reduction (S. pyogenes [12]): 99.99%
- Log Reduction (S. pyogenes [12]): >6.12 Log10
- % Reduction (MRSA): 99.999%
- Log Reduction (MRSA): >5.89 Log10
